Results published in paper PMC6522510 (Nature Communications, 2019).
Like-named read-outs stand apart in the source and are kept apart here.

Columns and labels:
[1] = tested on: Mll PTD/wt:Flt3 ITD/ITD double knock-in primary transplant blasts (bone marrow, spleen); assay: Accumulation in primary murine blasts; type: cell-based, mouse; conditions: blasts from bone marrow or spleen
Procedure: Cells were washed twice with ice-cold PBS; cell pellets were solubilized in 400 µL 1 N NaOH and agitated (300 rpm) at room temperature for 2 h. Then samples were neutralized with […] 1 M HCl; a 25 µL aliquot of lysate was used to estimate protein concentration using a Pierce BCA protein assay kit (Thermo Scientific). Total radioactivity was measured by a Tri-Carb 4810TR liquid scintillation counter (Perkin-Elmer) after mixing the sample with 4 mL of Emulsifier Safe (Perkin Elmer); the results were normalized to total protein content as measured by a Pierce BCA protein assay kit. Three independent experiments were performed in triplicate.
Bone marrow and splenocytes were isolated from mice transplanted with dKI AML and CG-V617 AMKL. Following red blood cells lysis, dKI AML leukemic blasts from vehicle treated mice were evaluated for accumulation of cytarabine and gemcitabine using the uptake assay described above.
Supplementary Figure 5. Accumulation of cytarabine and gemcitabine .
unlabeled and [3H]-cytarabine (Ara- C) or gemcitabine ( Gem ). Intracellular Ara- C, Gem ,
scintillation counting and normalized to protein levels. Representative chromatogram for
as disintegrations per minute (DPM) over complete run time. (c) Percentage of total
independent experiments (N=9). (d) Accumulation was determined in cell lysate of bone
double knock-in primary transplant recipient. […]

[2] = tested on: Mll-PTD/wt:Flt3ITD/ITD secondary transplants; assay: In vivo efficacy, survival; design: species or system mice; conditions: for Median survival: i.p.
THP-1 = type: cell-based; conditions: Homo sapiens, 72 h, Cell Titer Glo
CHRF288-11 = assay: Secondary dose-response HTS, Cell Titer Glo; type: cell-based, human; conditions: Homo sapiens; secondary HTS, 72 h, average of triplicate; read-out: EC50 CHRF288-11
[3] = tested on: CHRF288-11-luciferase/YFP+ xenograft; assay: In vivo efficacy, survival; design: species or system NSG mice; conditions: CHRF288-11 xenograft, 50 mg kg−1 q4d, i.p.
M07e = assay: Secondary dose-response HTS, Cell Titer Glo; type: cell-based, human; conditions: Homo sapiens, M-07e
AML cell lines [4] = assay: Nuclear accumulation of [3H]-labelled drug; type: cell-based, human; conditions: 2 h, 1 µM
CMS = assay: Secondary dose-response HTS, Cell Titer Glo; type: cell-based, human; conditions: Homo sapiens; secondary HTS, 72 h, average of triplicate; read-out: EC50 CMS
MOLM-13 = assay: Secondary dose-response HTS, Cell Titer Glo; type: cell-based, human; conditions: Homo sapiens, MOLM-13
[5] = In vivo tolerability / maximum tolerated dose; design: species or system mice
Procedure: Next, we sought to compare the in vivo efficacy of gemcitabine and cabazitaxel to the standard of care, cytarabine. Due to limitations with tolerability, we have previously treated our AML xenograft models with low-dose cytarabine[13],[31]. […] Tolerability studies of gemcitabine at the same dose and schedule was not tolerated. […] Similarly, we performed tolerability of cabazitaxel using multiple doses on an intermittent every 3 or 4-day schedule; the only tolerable dose was 5 mg/kg.
All animal studies were performed in accordance with Animal Care and Use Programs under protocols approved by the Institutional Animal Care and Use Committee at OSU. We have complied with the relevant ethical considerations for animal research overseen by this committee. Mice were housed in a barrier facility. Non-tumor bearing Ly5.2 C57Bl/6 (BoyJ) mice were treated with 100, 120, or 140 mg kg^−1 gemcitabine on an intermittent schedule every 3 days for 3 weeks; 3 or 6 mg kg^−1 doses were used to evaluate daily for 5 days schedule. All doses were administered by intraperitoneal injection; tolerability was assessed by daily weights and observation of changes in body condition.
Supplementary Figure 12. Establish maximum tolerated dose of gemcitabine. Non-tumor bearing female BoyJ mice were treated on an intermittent schedule every 3 days for 3 weeks with 100, 120, or 140 m gkg-1 gemcitabine (Gem ) or treated on a daily schedule once a day for 5 days with 3 or 6 m gkg-1 Gem. Daily weight of treated mice; data reported as a percent weight loss from day 0. Arrow indicate treatment days.

U937 [6] = assay: cells; design: species or system AML cell lines (8); Secondary HTS, 10-point dose-response in triplicate, Cell Titer Glo viability, four-parameter fit EC50; conditions: Homo sapiens, U-937, 72 h, read-out: U937
AML cell lines [7] = conditions: human, 5 min, 1 µM
[8] = tested on: Mll-PTD/wt:Flt3ITD/ITD primary transplants; assay: In vivo efficacy, survival; design: species or system mice; conditions: Mll-PTD/wt:Flt3ITD/ITD primary transplants, 50 mg kg−1 q4d, i.p.
[9] = tested on: ML-2-luciferase/YFP+ xenograft; assay: In vivo efficacy, survival; design: species or system NSG mice; conditions: ML-2 xenograft, 50 mg kg−1 q4d, i.p.
[10] = tested on: AMKL primary AML blast samples; assay: Ex vivo drug treatment of primary AML blasts on mesenchymal stromal cells; type: cell-based; conditions: Homo sapiens; primary blasts on MSC, 96 h
U937 [11] = assay: Secondary dose-response HTS, Cell Titer Glo; type: cell-based, human; conditions: Homo sapiens, U-937; secondary HTS, 72 h, average of triplicate; read-out: EC50 U937
CMK [12] = assay: cells; design: species or system AML cell lines (8); Secondary HTS, 10-point dose-response in triplicate, Cell Titer Glo viability, four-parameter fit EC50; conditions: Homo sapiens, CMK, 72 h, read-out: CMK
CMK [13] = assay: Secondary dose-response HTS, Cell Titer Glo; type: cell-based, human; conditions: Homo sapiens, CMK; secondary HTS, 72 h, average of triplicate; read-out: EC50 CMK
[14] = tested on: MLLr primary AML blast samples; assay: Ex vivo drug treatment of primary AML blasts on mesenchymal stromal cells; type: cell-based; conditions: Homo sapiens; primary blasts on MSC, 96 h, range over patient samples

Compound: Nc1ccn([C@@H]2O[C@H](CO)[C@@H](O)C2(F)F)c(=O)n1 [Gemcitabine, gemcitabine]
- accumulation of total gemcitabine versus cytarabine [1]: 6.0–6.7 fold
- Median survival ([2]; 3 mg kg−1 daily x 5 days): 49 days
- tolerability of the intermittent MTD ([2]; 120 mg kg−1 q3d): not well tolerated
- Median survival ([2]; 120 mg kg−1 q3d (only 4 doses received)): 52 days
- IC50 (THP-1): 3.5 nM
- EC50 (CHRF288-11): 3 nM
- Median survival [3]: 48 days
- Median survival ([3]; x 2 cycles): 66 days
- EC50 (M07e; secondary HTS, 72 h, average of triplicate, read-out: EC50 M07e): 60 nM
- EC50 (M07e; secondary high-throughput screen, M07e, read-out: average effective concentration, M07e): 62 nM
- nuclear accumulation, gemcitabine compared to cytarabine (AML cell lines [4]): 5–19.8 fold
- EC50 (CMS): 30 nM
- EC50 (MOLM-13; secondary HTS, 72 h, average of triplicate, read-out: EC50 MOLM-13): 3 nM
- EC50 (MOLM-13; secondary high-throughput screen, read-out: average effective concentration, MOLM-13): 2.73 nM
- MTD at 5 days ([5]; female, Ly5.2 C57Bl/6 (BoyJ), mouse, in vivo, ip, immunocompetent (BoyJ) mice, daily for 5 days, i.p., read-out: MTD, daily administration): 3 mg/kg
- MTD, intermittent administration ([5]; immunocompetent (BoyJ) mice, q3d for 3 weeks, i.p.): 120 mg/kg
- tolerability ([5]; mouse, in vivo): not tolerated
- EC50 (U937 [6]): 7.73 nM
- intracellular uptake, gemcitabine relative to cytarabine (AML cell lines [7]): 1.2–3.6 fold
- Median survival [8]: 69 days
- Median survival [9]: 45 days
- IC50 [10]: 108 nM
- EC50 (U937 [11]): 10 nM
- EC50 (CMK [12]): 8.4 nM
- EC50 (CMK [13]): 10 nM
- IC50 [14]: 267 to 4230 nM
